Series [1] concerns HT-29. Put plainly: Antiproliferative activity against human HT-29 cells assessed as inhibition of cell growth measured after 48 hrs by MTT assay. It counts as functional, cell-based. To be noted: HT-29, 48 h. On the technique in general: Tetrazolium dyes change colour on reduction, which living cells bring about.
Series [2] deals with HCT-116. Nature of the series: Antiproliferative activity against human HCT-116 cells assessed as inhibition of cell growth measured after 48 hrs by MTT assay. It counts as functional, cell-based. To be noted: HCT-116, 48 h.
For a further series, the system named is L929. Put plainly: Cytotoxicity against mouse L929 cells assessed as reduction in cell viability at 0.78 to 100 uM measured after 24 hrs by MTT colorimetric assay. It counts as toxicity, cell-based. To be noted: l929, 24 h, dose 0.78-100 µM.
Series [3] can be described thus: Cytotoxicity against mouse L929 cells assessed as cell survival at 0.78 to 100 uM measured after 24 hrs by MTT colorimetric assay relative to control. It counts as toxicity, cell-based. To be noted: dose 0.78-100 µM, read-out: Activity.
In series [4] the test system is HT-29. Nature of the series: Antiproliferative activity against human HT-29 cells assessed as inhibition of cell growth at 50 uM measured after 48 hrs by MTT assay. It counts as functional, cell-based. The conditions noted are these: HT-29, 48 h.
The subject of series [5] is HCT-116. Put plainly: Antiproliferative activity against human HCT-116 cells assessed as inhibition of cell growth at 50 uM measured after 48 hrs by MTT assay. The format is functional, cell-based. The conditions noted are these: HCT-116, 48 h.
In series [6] the test system is HT-29. Put plainly: Induction of apoptosis in human HT-29 cells assessed as increase in cleaved caspase-3 expression measured after 24 to 48 hrs by Western blot analysis. The conditions noted are these: time 24-48 hrs. It counts as functional, cell-based. On the technique in general: In western blotting, separated proteins are transferred to a membrane and probed.

Series [7] concerns HCT-116. Nature of the series: Induction of apoptosis in human HCT-116 cells assessed as increase in cleaved caspase-3 expression measured after 24 hrs by Western blot analysis. It counts as functional, cell-based.
In series [8] the test system is HCT-116. Nature of the series: Induction of apoptosis in human HCT-116 cells assessed as increase in cleaved caspase-3 expression measured after 48 hrs by Western blot analysis. The format is functional, cell-based.
Series [9] deals with HCT-116. Put plainly: Induction of apoptosis in human HCT-116 cells assessed as inhibition of capsase-3 expression measured after 24 to 48 hrs by Western blot analysis. The format is functional, cell-based. The conditions noted are these: time 24-48 hrs.
Series [10] relates to HT-29. Nature of the series: Induction of apoptosis in human HT-29 cells assessed as inhibition of capsase-3 expression measured after 24 to 48 hrs by Western blot analysis. It counts as functional, cell-based. To be noted: time 24-48 hrs.
The test system of series [11] is HT-29. Nature of the series: Induction of apoptosis in human HT-29 cells assessed as increase in cleaved PARP expression measured after 48 hrs by Western blot analysis. It counts as functional, cell-based.
Series [12] has as its system HCT-116. Put plainly: Induction of apoptosis in human HCT-116 cells assessed as increase in cleaved PARP expression measured after 24 to 48 hrs by Western blot analysis. To be noted: time 24-48 hrs. The format is functional, cell-based.
Series [13] has as its system HT-29. Nature of the series: Induction of apoptosis in human HT-29 cells assessed as inhibition of PARP expression by Western blot analysis. The format is functional, cell-based. The conditions noted are these: time 24-48 hrs, TDE = time-dependent effect.
In series [14] the test system is HCT-116. Nature of the series: Induction of apoptosis in human HCT-116 cells assessed as inhibition of PARP expression by Western blot analysis. The format is functional, cell-based. To be noted: time 24-48 hrs, TDE = time-dependent effect.
Series [15] concerns HT-29. Nature of the series: Induction of apoptosis in human HT-29 cells assessed as fold increase in DNA fragmentation measured after 48 hrs by ELISA method. The format is functional. In general terms: ELISA stands for enzyme-linked immunosorbent assay.
Series [16] has as its system HCT-116. Nature of the series: Induction of apoptosis in human HCT-116 cells assessed as fold increase in DNA fragmentation measured after 48 hrs by ELISA method. The format is functional.
Series [17] relates to HCT-116. Nature of the series: Induction of apoptosis in human HCT-116 cells assessed as upregulation of Akt expression level measured after 6 to 12 hrs by Western blotting analysis. The format is functional, cell-based. The conditions noted are these: time 6-12 hrs.
Series [18] concerns HCT-116. Put plainly: Induction of apoptosis in human HCT-116 cells assessed as downregulation of Akt phosphorylation level measured after 6 hrs by Western blotting analysis. It counts as functional, cell-based.
Series [19] relates to HCT-116. Nature of the series: Induction of apoptosis in human HCT-116 cells assessed as decrease in ERK phosphorylation level measured after 6 hrs by Western blotting analysis. The format is functional, cell-based.
Series [20] has as its system HCT-116. Nature of the series: Induction of apoptosis in human HCT-116 cells assessed as inhibition of ERK phosphorylation level measured after 12 hrs by Western blotting analysis. The format is functional, cell-based.
The subject of series [21] is HCT-116. Nature of the series: Induction of apoptosis in human HCT-116 cells assessed as activation of p38 measured after 6 to 12 hrs by Western blotting analysis. The format is functional, cell-based. The conditions noted are these: time 6-12 hrs.
In series [22] the test system is HCT-116. Put plainly: Induction of apoptosis in human HCT-116 cells assessed as effect on ERK expression level measured after 6 to 12 hrs by Western blotting analysis. It counts as functional, cell-based. The conditions noted are these: time 6-12 hrs.

Molecules are shown by their SMILES. Calls of active or inactive are those of the source. No cut-off for these calls is given here.

As a reminder, the IC50 is the concentration that inhibits the measured activity by half. On to `C#CCOc1ccc(C(c2ccc(OCc3cnnn3CCCN)cc2)c2ccccn2)cc1` (centres undefined), for which the IC50 in the series on HT-29 [1] and in the series with HCT-116 [2] was > 50 µM throughout. Also, the Activity entry with L929 is recorded as “Non-Toxic”. For the same compound, the viability at 24 h, up to 100 µM in series [3] is 100%.

On to `O[C@@H]1[C@@H](O)[C@@H](O)O[C@H](Cn2cc(COc3ccc(C(c4ccc(OCc5cn(C[C@H]6O[C@H](O)[C@H](O)[C@@H](O)[C@H]6O)nn5)cc4)c4ccccn4)cc3)nn2)[C@@H]1O` (some centres undefined), for which the IC50 in the series with HT-29 [1] and in the series on HCT-116 [2] was > 50 µM each time.

With `c1ccc(Cn2cc(COc3ccc(C(c4ccc(OCc5cn(Cc6ccccc6)nn5)cc4)c4ccccn4)cc3)nn2)cc1`, the IC50 in the series on HT-29 [1] and in the series with HCT-116 [2] was > 50 µM throughout. Moreover, in the series with L929, the Activity result is recorded as “Non-Toxic”. Besides, the viability at 24 h, up to 100 µM in series [3] was 100%.

For `c1ccc(C(c2ccc(OCc3cn(C[C@H]4CCCN4)nn3)cc2)c2ccc(OCc3cn(C[C@H]4CCCN4)nn3)cc2)nc1`, the IC50 in the series on HT-29 [1] and in the series with HCT-116 [2] was > 50 µM in each case. Also, in the series on L929, the Activity result is “Non-Toxic”. The viability at 24 h, up to 100 µM in [3] was 100%.

For the compound `[O-][n+]1ccccc1C(c1ccc(OCc2cn(CCN3CCCCC3)nn2)cc1)c1ccc(OCc2cn(CCN3CCCCC3)nn2)cc1`, the IC50 with HT-29 [1], with HCT-116 [2], with HT-29 [4] and with HCT-116 [5] was > 50 µM throughout.

Take `C#CCOc1ccc(C(c2ccc(OCc3cn(CCN4CCCCC4)nn3)cc2)c2ccccn2)cc1` (centres undefined): the IC50 worked out at 24.7 µM in the series with HT-29 [1] and 45 µM in the series on HCT-116 [2]. Moreover, the Activity entry with L929 is reported as “Non-Toxic”. Also, the viability at 24 h, up to 100 µM in series [3] worked out at 100%.

For the compound `C#CCOc1ccc(C(c2ccc(OCc3cn(Cc4ccccc4)nn3)cc2)c2ccccn2)cc1` (centres undefined), the IC50 in the series with HT-29 [1] and in the series on HCT-116 [2] was > 50 µM throughout. For the same compound, the Activity entry in the series on L929 was “Non-Toxic”. In series [3], the viability at 24 h, up to 100 µM came to 100%.

`OC[C@@H](O)[C@H]1O[C@H](O)[C@H](O)[C@H]1n1cc(COc2ccc(C(c3ccc(OCc4cn([C@@H]5[C@@H](O)[C@@H](O)O[C@@H]5[C@H](O)CO)nn4)cc3)c3ccccn3)cc2)nn1` (some centres undefined): the IC50 in the series on HT-29 [1] and in the series on HCT-116 [2] was > 50 µM in each case.

As for `c1ccc(C(c2ccc(OCc3cn(CCN4CCCCC4)nn3)cc2)c2ccc(OCc3cn(CCN4CCCCC4)nn3)cc2)nc1`, the IC50 was determined as 11 µM in the series with HT-29 [1] and 14.4 µM in the series on HCT-116 [2]. For the same compound, the result in the series with HT-29 [6], in the series with HCT-116 [8], in the series with HCT-116 [9], in the series with HT-29 [10], in the series with HT-29 [11] and in the series with HCT-116 [12] was Active. In addition, the result in the series with HCT-116 [17], with HCT-116 [18], in the series on HCT-116 [19] and with HCT-116 [20] was Active. Further, the outcome in the series with HCT-116 [7], with HCT-116 [21] and in the series on HCT-116 [22] was inactive. The Activity result is “Tde” in the series on HT-29 [13], “Tde” in the series with HCT-116 [14] and “Non-Toxic” with L929. In addition, the “fold change (FC)” value in the series on HT-29 [15] is 5.37; in the series on HCT-116 [16], 6.73. Moreover, the viability at 24 h, up to 100 µM in [3] stood at 100%.

These data come from ChEMBL document CHEMBL5376025, “Colorectal anticancer activity of a novel class of triazolic triarylmethane derivatives” (RSC Med Chem, 2024).
